Reference: patent publication US8975265B2, “Substituted imidazo[1,2-a]pyrimidines and —pyridines” (Bayer Intellectual Property GmbH, priority 2010, dated 2015)

Key:
[1] = system: KPL-4 breast cancer cell line; assay: Tumor cell proliferation assay (CellTiter-Glo, 72 h), KPL-4; type: cell-based; settings: KPL4, 72h drug exposure
Description: Biological Assay 4.0: Tumor Cell Proliferation Assays
Compounds were tested in a cell-based assay that measures the capacity of the compounds to inhibit tumour cell proliferation following a 72h drug exposure. Cell viability is determined using CellTiter-Glow® (CTG, Promega, cat# G7571/2/3). The CellTiter-Glo® Luminescent Cell Viability Assay is a homogeneous method to determine the number of viable cells in culture. Detection is based on using the luciferase reaction to measure the amount of ATP from viable cells. The amount of ATP in cells correlates with cell viability. Within minutes after a loss of membrane integrity, cells lose the ability to synthesize ATP, and endogenous ATPases destroy any remaining ATP; thus the levels of ATP fall precipitously.
For each cell line assayed, cells were plated onto a separate plate for determination of […] at t=0 hour and t=72 hour time points. Following overnight incubation at 37° C., chemiluminescence values for the t=0 samples were determined after adding 10 μl medium and 100 μl CTG solution according to manufacture protocol. Plates for the t=72 hour time points were treated with compounds diluted into growth medium at ten times final concentration added in 10 μL to the cell culture plate. Cells were then incubated for 72 hours at 37° C. Chemiluminescence values for the t=72 hour samples were determined. […] Experiments were controlled using a reference compound as standard.

[2] = system: p-AKT1/2/3-S473 in KPL4 breast tumour cell line; assay: Cellular p-AKT1/2/3-S473 assay; type: cell-based; settings: KPL4 breast tumour cell line, 2 hours treatment; read-out: pAKT-S743 median IC50
Description: The molecular mechanism of action was investigated in a set of experiments to assess the inhibition of the PI3K-AKT-mTOR pathway in responsive cell lines such as KPL4 breast tumour cell line (PIK3CAH1047R, HER20/E and hormone independent). The phospho-substrates of PI3K-AKT-mTOR axis were used as the read-outs to reflect pathway inhibition. Cells were seeded at 60-80% confluency per well in 96-well cell culture plates. After overnight incubation at 37° C. 5% CO2, cells were treated with compounds and vehicle at 37° C. for 2 hours. […] All measurements where at least done in duplicates and confirmed by independent repetition.
Alternatively pAKT-S473 was measured using the “Akt Duplex” of the MULTI-SPOT® Assay System (Fa. Meso Scale Discovery, Cat# N41100B-1) following manufacturers instructions. Each assay used 20 μg of protein extract and measured total AKT and p-AKT content simultaneously in one well. All measurements where at least done in duplicates and confirmed by independent repetition. Values for P-AKT are expressed as percentage of P-AKT level compared to total-AKT content of the extracts.

[3] = target: His-tagged human recombinant kinase full-length Akt1 (Homo sapiens (Human), UniProt P31749); assay: Akt1 kinase assay (TR-FRET); type: biochemical; settings: 10 μM ATP; read-out: Akt1, median IC50
Description: Biological Assay 1.0: Akt1 Kinase Assay
Akt1 inhibitory activity of compounds of the present invention was quantified employing the Akt1 TR-FRET assay as described in the following paragraphs.
As substrate for the kinase reaction the biotinylated peptide biotin-Ahx-[…] (C-terminus in amide form) was used which can be purchased e.g. from the company Biosynthan GmbH (Berlin-Buch, Germany).
For the assay 50 nl of a 100 fold concentrated solution of the test compound in DMSO was pipetted into a black low volume 384 well microtiter plate (Greiner Bio-One, Frickenhausen, Germany), 2 μl of a solution of Akt1 in assay buffer [50 mM TRIS/HCl pH 7.5, 5 mM MgCl2, 1 mM dithiothreitol, 0.02% (v/v) Triton X-100 (Sigma)] were added and the mixture was incubated for 15 min at 22° C. to allow prebinding of the test compounds to the enzyme before the start of the kinase reaction. […] The concentration of Akt1 in the assay was adjusted depending of the activity of the enzyme lot and was chosen appropriate to have the assay in the linear range, typical enzyme concentrations were in the range of about 0.05 ng/μl (final conc. in the 5 μl assay volume).
The resulting mixture was incubated 1 h at 22° C. to allow the binding of the biotinylated phosphorylated peptide to the streptavidine-XL665 and the antibodies. Subsequently the amount of phosphorylated substrate was evaluated by measurement of the resonance energy transfer from the anti-mouse-IgG-Eu-Chelate to the streptavidine-XL665.

Sequence of His-tagged human recombinant kinase full-length Akt1 (P31749 whole entry): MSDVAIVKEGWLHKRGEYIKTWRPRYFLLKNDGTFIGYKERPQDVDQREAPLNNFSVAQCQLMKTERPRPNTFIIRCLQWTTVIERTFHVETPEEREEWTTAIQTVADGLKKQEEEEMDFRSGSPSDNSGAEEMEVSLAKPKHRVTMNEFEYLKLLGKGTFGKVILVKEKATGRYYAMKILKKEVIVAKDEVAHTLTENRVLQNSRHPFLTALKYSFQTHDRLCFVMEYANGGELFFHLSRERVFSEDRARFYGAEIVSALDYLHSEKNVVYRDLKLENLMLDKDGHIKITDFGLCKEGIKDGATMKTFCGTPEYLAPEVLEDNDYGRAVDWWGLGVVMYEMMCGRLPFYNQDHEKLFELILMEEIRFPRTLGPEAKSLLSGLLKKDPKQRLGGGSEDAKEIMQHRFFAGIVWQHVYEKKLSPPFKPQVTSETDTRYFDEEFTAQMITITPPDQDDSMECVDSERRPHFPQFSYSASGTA

SMILES | IC50 [1] [nM] | IC50 [2] [nM] | IC50 [3] [nM]
NC1(c2ccc(-c3nc4cc(-c5ccc(F)cc5)ccn4c3-c3ccccc3)cc2)CCC1 [Example 2-34] | 2200 | 1940 | 989
COC(=O)c1ccn2c(-c3ccccc3)c(-c3ccc(C4(N)CCC4)cc3)nc2c1 [Example 2-35] | 5000 | 975 | 226
NC1(c2ccc(-c3nc4cc(C5CC5)ccn4c3-c3ccccc3)cc2)CCC1 [Example 2-37] | 1900 | 441 | 1640
CCc1ccc2nc(-c3ccc(C4(N)CCC4)cc3)c(-c3ccccc3)n2c1 [Example 2-38] | 1900 | 467 | 260
NC1(c2ccc(-c3nc4cc(C(=O)N5CCCC5)ccn4c3-c3ccccc3)cc2)CCC1 [Example 2-42] | 9200 | 1240 | 19400
CCOC(=O)c1cccn2c(-c3ccccc3)c(-c3ccc(C4(N)CCC4)cc3)nc12 [Example 2-43] | 9200 | 1340 | 62
NC1(c2ccc(-c3nc4c(C5CC5)cccn4c3-c3ccccc3)cc2)CCC1 [Example 2-47] | 2000 | 339 | 140
C=Cc1ccc2nc(-c3ccc(C4(N)CCC4)cc3)c(-c3ccccc3)n2c1 [Example 2-48] | 2500 | 1030 | 300
NC1(c2ccc(-c3nc4c(-c5cn[nH]c5)cccn4c3-c3ccccc3)cc2)CCC1 [Example 2-50] | 1900 | 297 | 99
NC1(c2ccc(-c3nc4ccc(C(=O)O)cn4c3-c3ccccc3)cc2)CCC1 [Example 2-51] | 10000 | 4750 | 91
CC(C)NC(=O)c1ccc2nc(-c3ccc(C4(N)CCC4)cc3)c(-c3ccccc3)n2c1 [Example 2-53] | 2000 | 276 | 1710
NC1(c2ccc(-c3nc4ccc(C(=O)NCCF)cn4c3-c3ccccc3)cc2)CCC1 [Example 2-54] | 1300 | 83 | 423
NC1(c2ccc(-c3nc4ccc(C(=O)NCCO)cn4c3-c3ccccc3)cc2)CCC1 [Example 2-55] | 5500 | 308 | 1140
COCCNC(=O)c1ccc2nc(-c3ccc(C4(N)CCC4)cc3)c(-c3ccccc3)n2c1 [Example 2-56] | 3400 | 200 | 452
NC1(c2ccc(-c3nc4ccc(C(=O)NC5CC5)cn4c3-c3ccccc3)cc2)CCC1 [Example 2-57] | 3100 | 147 | 493
NC1(c2ccc(-c3nc4ccc(C(=O)NCC5CC5)cn4c3-c3ccccc3)cc2)CCC1 [Example 2-58] | 1900 | 193 | 342
NC1(c2ccc(-c3nc4ccc(C(=O)NO)cn4c3-c3ccccc3)cc2)CCC1 [Example 2-59] | 3800 | 236 | 257
COC(=O)c1cc(Cl)c2nc(-c3ccc(C4(N)CCC4)cc3)c(-c3ccccc3)n2c1 [Example 2-60] | 7700 | 655 | 31
CN(C)C(=O)c1ccc2nc(-c3ccc(C4(N)CCC4)cc3)c(-c3ccccc3)n2c1 [Example 2-61] | 9400 | 781 | 1900
CCNC(=O)c1ccc2nc(-c3ccc(C4(N)CCC4)cc3)c(-c3ccccc3)n2c1 [Example 2-62] | 1700 | 93 | 376

SMILES | IC50 [1] [nM] | IC50 [2] [nM] | IC50 [3] [nM]
NC1(c2ccc(-c3nc4ccc(C5CC5)cn4c3-c3ccccc3)cc2)CCC1 [Example 2-63] | 2000 | 256 | 734
NC1(c2ccc(-c3nc4nc(OCCN5CCCC5=O)ccn4c3-c3ccccc3)cc2)CCC1 [Example 2-64] | 3200 | 203 | 1660
NC(=O)C1(COc2ccn3c(-c4ccccc4)c(-c4ccc(C5(N)CCC5)cc4)nc3n2)CC1 [Example 2-65] | 10000 | 3840 | 1070
NC1(c2ccc(-c3nc4cc(Cl)ccn4c3-c3ccccc3)cc2)CCC1 [Example 2-66] | 1800 | 134 | 113
NC1(c2ccc(-c3nc4ccccn4c3-c3ccccc3)cc2)CCC1 [Example 2-106, 1-[4-(3-phenyl-imidazo[1,2-a]pyridin-2-yl)-phenyl]-cyclobutylamine] | 2100 | 202 | 151
CCOc1ccc2nc(-c3ccc(C4(N)CCC4)cc3)c(-c3ccccc3)n2c1 [Example 2-107, 1-[4-(6-ethoxy-3-phenyl-imidazo[1,2-a]pyridin-2-yl)-phenyl]-cyclobutylamine] | 1700 | 253 | 204
C=Cc1ccn2c(-c3ccccc3)c(-c3ccc(C4(N)CCC4)cc3)nc2c1 [Example 2-108, 1-[4-(3-phenyl-7-vinyl-imidazo[1,2-a]pyridin-2-yl)-phenyl]-cyclobutylamine] | 10000 | 3100 | 1950
NC1(c2ccc(-c3nc4cc(-c5ccncc5)ccn4c3-c3ccccc3)cc2)CCC1 [Example 2-109, 1-[4-(3-phenyl-7-pyridin-4-yl-imidazo[1,2-a]pyridin-2-yl)-phenyl]-cyclobutylamine] | 1500 | 28 | 181
NC1(c2ccc(-c3nc4cc(-c5cc[nH]n5)ccn4c3-c3ccccc3)cc2)CCC1 [Example 2-112] | 1700 | 66 | 153
Cn1cncc1-c1ccn2c(-c3ccccc3)c(-c3ccc(C4(N)CCC4)cc3)nc2c1 [Example 2-116] | 1600 | 63 | 236
NC1(c2ccc(-c3nc4cc(-c5nn[nH]n5)ccn4c3-c3ccccc3)cc2)CCC1 [Example 2-117] | 10000 | 10000 | 26
CCOC(=O)c1ccn2c(-c3ccccc3)c(-c3ccc(C4(N)CCC4)cc3)nc2c1 [Example 2-119] | 4200 | 725 | 86
NC1(c2ccc(-c3nc4cc(C(=O)O)ccn4c3-c3ccccc3)cc2)CCC1 [Example 2-120] | 10000 | 8120 | 550
CNC(=O)c1ccn2c(-c3ccccc3)c(-c3ccc(C4(N)CCC4)cc3)nc2c1 [Example 2-122] | 1200 | 46 | 409
COC(=O)/C=C/c1ccn2c(-c3ccccc3)c(-c3ccc(C4(N)CCC4)cc3)nc2c1 [Example 2-123] | 2400 | 268 | 345
NC1(c2ccc(-c3nc4ccc(-c5cc[nH]n5)cn4c3-c3ccccc3)cc2)CCC1 [Example 2-131] | 1700 | 88 | 171
NC1(c2ccc(-c3nc4ccc(-c5nn[nH]n5)cn4c3-c3ccccc3)cc2)CCC1 [Example 2-135] | 10000 | 9810 | 74
NC1(c2ccc(-c3nc4ccc(-c5ccncc5)cn4c3-c3ccccc3)cc2)CCC1 [Example 2-136] | 1900 | 150 | 533
NC1(c2ccc(-c3nc4ccc(-c5cccnc5)cn4c3-c3ccccc3)cc2)CCC1 [Example 2-137] | 1700 | 149 | 541
